Assay results published in patent publication EP0428423A2, “Aryloxy alkyl benzenes, processes for their preparation and pharmaceutical compositions containing them” (LIPHA S.A., priority 1989, dated 1991).

What was measured:
COTRANSPORT Na-K = target: T1, COTRANSPORT Na-K (Homo sapiens, UniProt P55011); assay: Na-K cotransport of human erythrocytes; assay type: cell-based, ERYTHROCYTES HUMAINS; details: human erythrocytes
T1 construct: systèmes de transport du sodium et du potassium des érythrocytes humains; endogenous in cells; host or cells: human erythrocytes
T1 sequence (P55011 1-1212): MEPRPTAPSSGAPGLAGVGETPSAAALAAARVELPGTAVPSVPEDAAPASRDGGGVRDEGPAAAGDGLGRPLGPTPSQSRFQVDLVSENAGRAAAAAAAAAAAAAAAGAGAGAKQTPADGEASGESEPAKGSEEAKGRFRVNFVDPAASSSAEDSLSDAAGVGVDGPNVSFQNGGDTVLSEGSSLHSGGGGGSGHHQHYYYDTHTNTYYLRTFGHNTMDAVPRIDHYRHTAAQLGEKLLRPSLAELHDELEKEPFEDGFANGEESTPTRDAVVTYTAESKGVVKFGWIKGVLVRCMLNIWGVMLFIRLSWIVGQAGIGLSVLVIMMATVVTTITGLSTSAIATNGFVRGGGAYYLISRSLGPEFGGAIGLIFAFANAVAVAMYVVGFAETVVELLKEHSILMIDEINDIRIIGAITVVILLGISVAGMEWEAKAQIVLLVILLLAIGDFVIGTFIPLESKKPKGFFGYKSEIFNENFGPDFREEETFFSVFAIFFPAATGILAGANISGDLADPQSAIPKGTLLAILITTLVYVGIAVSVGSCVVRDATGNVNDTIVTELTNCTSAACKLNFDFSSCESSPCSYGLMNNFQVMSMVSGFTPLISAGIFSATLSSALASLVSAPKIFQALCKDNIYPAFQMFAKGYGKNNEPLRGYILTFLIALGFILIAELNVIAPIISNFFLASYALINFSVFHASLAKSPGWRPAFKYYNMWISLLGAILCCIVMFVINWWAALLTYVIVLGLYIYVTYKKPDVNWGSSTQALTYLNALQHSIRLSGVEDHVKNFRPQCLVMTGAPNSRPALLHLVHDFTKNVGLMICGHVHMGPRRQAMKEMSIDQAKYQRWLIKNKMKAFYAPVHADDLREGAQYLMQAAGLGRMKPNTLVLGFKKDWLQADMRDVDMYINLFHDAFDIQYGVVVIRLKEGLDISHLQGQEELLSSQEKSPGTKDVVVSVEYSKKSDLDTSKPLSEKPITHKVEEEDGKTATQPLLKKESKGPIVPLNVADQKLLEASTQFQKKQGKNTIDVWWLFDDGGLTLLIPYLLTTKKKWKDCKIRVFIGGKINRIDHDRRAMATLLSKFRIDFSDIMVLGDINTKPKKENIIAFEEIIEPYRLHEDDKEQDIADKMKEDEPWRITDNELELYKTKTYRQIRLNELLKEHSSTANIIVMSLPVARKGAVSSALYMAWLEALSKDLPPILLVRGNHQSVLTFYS
Description: Cet effet a été étudié selon la méthodologie décrite par G. GARAY et coll. dans Naunyn-Schmidberg's Arch. Pharmakol. […] Pharm.

RAT = assay: Diuretic activity in the rat (hourly urine volume, sodium and potassium assay); assay type: in vivo; details: po; R = RAT; diuretic activity; read-out: Dose minimale active
Description: (§1) d'urine sont déterminés toutes les heures. Le dosage de sodium et du potassium est effectué par spectrophotométrie.

ECHANGEUR D'ANIONS = target: T2, ECHANGEUR D'ANIONS (Homo sapiens, UniProt P02730); assay: Anion exchanger of human erythrocytes; assay type: cell-based, ERYTHROCYTES HUMAINS
T2 construct: systèmes de transport du sodium et du potassium des érythrocytes humains; endogenous in cells; host or cells: human erythrocytes
T2 sequence (P02730 1-911): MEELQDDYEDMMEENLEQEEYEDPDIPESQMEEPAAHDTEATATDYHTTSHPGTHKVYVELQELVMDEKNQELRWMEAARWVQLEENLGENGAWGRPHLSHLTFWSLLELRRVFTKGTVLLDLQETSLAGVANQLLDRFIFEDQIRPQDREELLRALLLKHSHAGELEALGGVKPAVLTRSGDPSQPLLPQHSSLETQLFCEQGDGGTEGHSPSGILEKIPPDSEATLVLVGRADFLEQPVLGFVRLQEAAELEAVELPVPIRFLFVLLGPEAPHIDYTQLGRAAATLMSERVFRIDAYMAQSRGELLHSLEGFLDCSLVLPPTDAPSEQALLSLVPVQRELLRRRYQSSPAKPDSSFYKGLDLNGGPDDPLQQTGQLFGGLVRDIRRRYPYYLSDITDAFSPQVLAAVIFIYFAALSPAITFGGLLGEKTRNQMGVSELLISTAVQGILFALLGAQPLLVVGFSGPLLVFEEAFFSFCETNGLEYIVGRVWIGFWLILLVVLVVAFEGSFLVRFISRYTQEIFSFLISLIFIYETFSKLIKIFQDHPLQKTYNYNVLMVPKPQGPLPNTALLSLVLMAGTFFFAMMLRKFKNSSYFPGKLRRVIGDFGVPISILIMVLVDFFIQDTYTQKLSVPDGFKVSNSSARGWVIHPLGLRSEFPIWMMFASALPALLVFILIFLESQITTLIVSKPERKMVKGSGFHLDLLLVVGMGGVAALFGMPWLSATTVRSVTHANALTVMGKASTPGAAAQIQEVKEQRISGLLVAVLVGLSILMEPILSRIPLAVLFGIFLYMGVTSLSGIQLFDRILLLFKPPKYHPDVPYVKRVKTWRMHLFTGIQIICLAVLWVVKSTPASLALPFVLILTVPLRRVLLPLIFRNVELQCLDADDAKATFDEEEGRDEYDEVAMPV
Description: Cet effet a été étudié selon la méthodologie décrite par G. GARAY et coll. dans Naunyn-Schmidberg's Arch. Pharmakol. 334 (1986) 202-209 et dans Bioch. Pharm. 33 (1984) 2013-2020.

lipoxygénase de soja = target: T3, lipoxygénase de soja (Glycine max, UniProt P08170); assay: Anti-lipoxygenase action on soybean lipoxygenase; assay type: biochemical
T3 sequence (P08170 1-839): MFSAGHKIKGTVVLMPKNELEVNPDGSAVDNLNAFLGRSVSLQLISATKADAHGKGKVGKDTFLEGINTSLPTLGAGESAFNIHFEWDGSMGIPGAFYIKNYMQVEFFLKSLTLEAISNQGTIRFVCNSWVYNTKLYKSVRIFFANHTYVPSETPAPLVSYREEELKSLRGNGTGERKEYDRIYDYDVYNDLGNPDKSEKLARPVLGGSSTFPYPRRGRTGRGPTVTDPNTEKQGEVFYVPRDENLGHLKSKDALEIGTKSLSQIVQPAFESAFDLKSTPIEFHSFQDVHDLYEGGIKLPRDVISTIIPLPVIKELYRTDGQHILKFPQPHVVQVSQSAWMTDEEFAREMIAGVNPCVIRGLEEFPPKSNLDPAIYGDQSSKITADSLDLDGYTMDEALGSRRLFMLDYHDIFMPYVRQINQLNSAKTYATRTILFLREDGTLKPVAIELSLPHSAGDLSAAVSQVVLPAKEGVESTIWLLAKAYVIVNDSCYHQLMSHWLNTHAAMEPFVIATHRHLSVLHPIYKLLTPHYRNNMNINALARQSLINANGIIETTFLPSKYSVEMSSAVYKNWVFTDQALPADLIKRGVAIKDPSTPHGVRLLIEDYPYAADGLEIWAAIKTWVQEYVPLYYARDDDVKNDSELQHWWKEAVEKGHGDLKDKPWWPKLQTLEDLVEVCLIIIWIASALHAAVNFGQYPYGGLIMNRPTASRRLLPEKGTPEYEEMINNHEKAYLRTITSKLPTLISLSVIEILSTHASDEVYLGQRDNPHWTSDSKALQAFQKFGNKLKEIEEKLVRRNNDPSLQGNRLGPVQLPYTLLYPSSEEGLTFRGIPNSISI
Description: L'action anti-lipoxygénase a été étudiée sur la lipoxygénase de soja selon la méthode décrite par W.L SMITH et W.E LANDS (J. Biol. Chem. 247 (1972) 1038-1047)

SOURIS = assay: Diuretic activity in the mouse (hourly urine volume, sodium and potassium assay); assay type: in vivo; details: S = SOURIS, PO, at the dose (minimal active dose)
Description: as §1

[1] = tested on: plasmas riches en plaquettes provenant de sang de rat; assay: Platelet anti-aggregation in vitro, ADP-induced (Born aggregometer); assay type: cell-based; details: in vitro, aggregating agent ADP, rat platelet-rich plasma, 37°; M not defined in the text; mM printed only in the TICLOPIDINE line
Method: Les études ont été réalisées sur des plasmas riches en plaquettes provenant de sang de rat, l'agrégation étant induite par addition d'acide Adénosine diphosphorique. Les courbes néphélométriques d'agrégation sont obtenues en utilisant un agrégomètre de type BORN, le plasma étant placé en incubation à 37° avec agitation continue de 1100 t/mn (cf. BORN G.V.R et CROSS J. - J. Physiol. 168 (1962) 178.

**Q.** Which results are given for COc1cccc(CCOc2ccc(F)cc2)c1 [ex 169]?
**A.** EFFET SUR LE COTRANSPORT Na-K IC 50 (COTRANSPORT Na-K): Non actif; minimal effective dose (RAT): 12 mg/kg; EFFET SUR L'ECHANGEUR D'ANIONS IC 50 (ECHANGEUR D'ANIONS): Non actif; ACTIVITE ANTI-LIPOXYGENASE IC 50 (lipoxygénase de soja): Inactif; Pouvoir diurétique en % (SOURIS): Inactif; Rapport Na/K en % (SOURIS): Inactif; M à 50 [1]: inactif
